# In patent publication US20230256217A1, “OZONE GENERATION APPARATUSES AND METHODS OF TREATING WOUNDS” (priority 2020, published 2023):
# What was measured:
# P. aeruginosa [1] = assay: Adjunct ozone and antibiotic therapy antibacterial test; type: cell-based; details: ozone 100 ppm (4 mg/hr) for six hours; antibiotic 20 μg/mL; 37° C.
# Method: To test the antibacterial effects of ozone in combination with antibiotics, a P. aeruginosa culture was inoculated in a solution of […] soy broth (TSB) and incubated overnight. A sample of the mature culture was diluted in new TSB at 1:50. The new culture media was then pipetted into test wells in triplicate at 1:10 with either linezolid or vancomycin solution in phosphate buffered saline (PBS) at 200 μg/mL. […] The bacterial samples were subject to the combination treatment of 100 ppm (4 mg/hr) ozone with vancomycin at 20 μg/mL and linezolid at 20 μg/mL. During testing, the test samples were kept at 37° C. At 2, 4, and six hours, 20 μL samples were withdrawn from the designated set of wells and plated on TSB agar plates. Bacterial colonies were counted after being incubated overnight at 37°. Experimental adjunct therapy samples were compared against treatment of only ozone, and control cultures exposed to antibiotics without the ozone. Because both antibiotics in the test (linezolid and vancomycin) are designed to be effective against G+ve bacteria, it was expected that neither will show any effect against the bacterial strain unless combined with ozone. Additionally, treatment was administered to in vitro colonies of P. aeruginosa under ideal conditions for bacterial growth.
# P. aeruginosa [2] = details: cited from earlier work
# S. epidermidis = details: cited from earlier work
# P. aeruginosa [3] = assay: Secondary study: pristine vs biofluid-preconditioned patch, bacteria spotted on filter paper; type: cell-based; details: ozone for six hours
# Method: A secondary study was also conducted on P. aeruginosa to verify that prolonged contact to a wound environment would not change antimicrobial properties. In each case, 100 μL of P. aeruginosa was diluted into 1 mL of PBS and spotted onto filter paper. Each experimental trial was exposed to the ozone for six hours. The first test was conducted through an untreated patch 10, while the second was conducted using a patch 10 that had been preconditioned by resting on a damp sponge filled with mammalian cell culture media overnight. FIGS. 9A and 9B report the results of the tests when compared to the controls, which were prepared in the same way, but exposed to no ozone treatment.
# [4] = tested on: normal mammary fibroblasts HMS-32 cells; assay: Cytotoxicity of ozone treatment on human cells; type: cell-based
# Method: FIGS. 10A through 10D include images of normal mammary fibroblasts HMS-32 cells initial (FIG. 10A), after six hours of ozone treatment (FIG. 10B), 24 hours after ozone treatment (FIG. 10C), and 48 hours after ozone treatment (FIG. 10D). Scale bar 10 micrometers. FIG. 10E contains a graph showing percentage of apoptotic cells at each time in a control group and an experimental group. Data was collected from triplicate samples, with error bars indicating standard deviation.
# The possibility for the use of ozone to treat antibiotic resistant infections is also dependent on the apparatus not damaging the normal skin cells. Cytotoxic experimentation was conducted to determine how the ozone treatment would interact with human skin cells (FIG. 10A through 10D). […] Ozone treatment has been used to increase the healing process for chronic wounds, so there is good reason to believe a high level of biocompatibility exists. […] Similar to the stain imaging done for the antimicrobial results, FIGS. 10A through 10D are stain images that show the health of the cells at each time point. In each cell, F-actin was stained green, and the nuclei were stained blue. These images support finding minimal cytotoxicity because there is no noticeable difference in the images over time. […]
# human keratinocyte cells = assay: Biocompatibility of adjunct therapy; type: cell-based; details: six hour, 100 ppm ozone; nanofiber solution with or without antibiotic
# Method: By studying the biocompatibility, it was determined that the treatment system was both effective and safe to use. To test this, human keratinocyte cells were either exposed to the ozone therapy (with or without antibiotics) or left as a control. In each case, cell samples were exposed to test inhibitory concentration of the nanofiber solution containing either linezolid, vancomycin, or no antibiotic. Tests were conducted under the same six hour and 100 ppm ozone parameters as the antibacterial studies.
# P. aeruginosa ATCC 15442 = assay: Antibacterial test of ozone applied by the patch; type: cell-based; details: initial 5 log CFU/mL concentration; within six hours of treatment
# Method: (§1) The antibacterial properties of the patch 10 were assessed by exposing multiple strains of antibiotic resistant bacteria (both Gram-negative and Gram-positive) to the ozone applied by the patch 10 for six hours, and measuring the living concentration every one to two hours. Experiments using two common strains of antibiotic resistant bacteria common in skin infections, S. epidermidis NRS101 and P. aeruginosa ATCC 15442, indicated positive results. […] FIGS. 8A through 8C show bacteria stain images of the samples before and after treatment, and a control. At first, all of the bacteria were stained green, and then any dead bacteria were re-stained with the red. These images show qualitatively that the bacteria before the treatment are living, and afterward are mostly dead. […] Additionally, results for the Gram-negative bacteria, P. aeruginosa, indicated even better results. […] FIGS. 8D, 8E, and 8F show similar stain images for P. aeruginosa.
# S. epidermidis NRS101 = assay: Antibacterial test of ozone applied by the patch; type: cell-based; details: six hours of ozone exposure through the patch
# Method: as §1
compound,measurement,setting,value
CC(=O)NC[C@H]1CN(c2ccc(N3CCOCC3)c(F)c2)C(=O)O1 [linezolid],bacterial population (CFU/mL) compared to initial,P. aeruginosa [1],did not inhibit the growth of the bacteria at all
C[C@@H](O)[C@H]1C(=O)N2C(C(=O)O)=C(S[C@@H]3CN[C@H](C(=O)N(C)C)C3)[C@H](C)[C@H]12 [meropenem],known effectiveness / resistance,P. aeruginosa [2],known to be effective
Cc1onc(-c2ccccc2)c1C(=O)N[C@@H]1C(=O)N2[C@@H]1SC(C)(C)[C@@H]2C(=O)O [oxacillin],known effectiveness / resistance,S. epidermidis,resisted
O=[O+][O-] [ozone],elimination of bacteria,P. aeruginosa [3]; patch preconditioned overnight on sponge with mammalian cell culture media,complete elimination of bacteria
same,elimination of bacteria,P. aeruginosa [3]; untreated (pristine) patch,complete elimination of bacteria
same,increase in cell apoptosis,"[4]; after six, 24 and 48 hours",no significant increase in cell apaptosis
same,increase in cell apoptosis,[4]; over 48 hours after six hours of ozone exposure,6.5%
same,percent of cell viability,human keratinocyte cells,did not significantly change
same,eradication of bacteria,P. aeruginosa ATCC 15442,completely eradicate
same,log10 reduction CFU/mL,S. epidermidis NRS101,0.8 log10 reduction CFU/mL
same,reduction from the starting inoculum,S. epidermidis NRS101,greater than 70%
NC[C@H]1O[C@H](O[C@H]2[C@H](O)[C@@H](O[C@H]3O[C@H](CO)[C@@H](O)[C@H](N)[C@H]3O)[C@H](N)C[C@@H]2N)[C@H](N)C[C@@H]1O [tobramycin],known effectiveness / resistance,P. aeruginosa [2],resisted
CN[C@H](CC(C)C)C(=O)N[C@H]1C(=O)N[C@@H](CC(N)=O)C(=O)N[C@H]2C(=O)N[C@H]3C(=O)N[C@H](C(=O)N[C@H](C(=O)O)c4cc(O)cc(O)c4-c4cc3ccc4O)[C@H](O)c3ccc(c(Cl)c3)Oc3cc2cc(c3O[C@@H]2O[C@H](CO)[C@@H](O)[C@H](O)[C@H]2O[C@H]2C[C@](C)(N)[C@H](O)[C@H](C)O2)Oc2ccc(cc2Cl)[C@H]1O [vancomycin],bacterial population (CFU/mL) compared to initial,P. aeruginosa [1],no impact on bacteria growth
same,known effectiveness / resistance,S. epidermidis,known to be effective
colistin,known effectiveness / resistance,P. aeruginosa [2],known to be effective
penicillin,known effectiveness / resistance,P. aeruginosa [2],resisted
same,known effectiveness / resistance,S. epidermidis,resisted
